According to PubChem BioAssay (NCI):
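Step 1: Grow cells in 96-well plates. Step 2: Expose to compound for 48 hours at 5 concentrations. Step 3: Interpolate endpoints linearly; if unreached, use highest concentration. GI50 marks 50% less growth. Definition used: TGI = concentration required for complete inhibition of growth.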

Assays:
Experiment in all cases: NCI tumour cell line growth inhibition, 48 h
SF-268 CNS = test system: SF-268 CNS
NCI-H522 lung = test system: NCI-H522 lung
SF-539 CNS = test system: SF-539 CNS
786-0 renal = test system: 786-0 renal
PC-3 prostate = test system: PC-3 prostate
HCT-116 colon = test system: HCT-116 colon
OVCAR-5 ovarian = test system: OVCAR-5 ovarian
MOLT-4 leukemia = test system: MOLT-4 leukemia
SK-MEL-2 melanoma = test system: SK-MEL-2 melanoma
CCRF-CEM leukemia = test system: CCRF-CEM leukemia
OVCAR-4 ovarian = test system: OVCAR-4 ovarian
UACC-62 melanoma = test system: UACC-62 melanoma
SK-OV-3 ovarian = test system: SK-OV-3 ovarian
OVCAR-8 ovarian = test system: OVCAR-8 ovarian
SK-MEL-5 melanoma = test system: SK-MEL-5 melanoma
HL-60(TB) leukemia = test system: HL-60(TB) leukemia
M14 melanoma = test system: M14 melanoma
COLO 205 colon = test system: COLO 205 colon
SK-MEL-28 melanoma = test system: SK-MEL-28 melanoma
HS 578T breast = test system: HS 578T breast
SR leukemia = test system: SR leukemia
SW-620 colon = test system: SW-620 colon
LOX IMVI melanoma = test system: LOX IMVI melanoma
SF-295 CNS = test system: SF-295 CNS
ACHN renal = test system: ACHN renal
MCF7 breast = test system: MCF7 breast
T-47D breast = test system: T-47D breast
U251 CNS = test system: U251 CNS
SNB-19 CNS = test system: SNB-19 CNS
HOP-62 NSCLC = test system: HOP-62 NSCLC
HCC-2998 colon = test system: HCC-2998 colon
BT-549 breast = test system: BT-549 breast
MDA-MB-231 breast = test system: MDA-MB-231 breast
RPMI-8226 leukemia = test system: RPMI-8226 leukemia
MDA-MB-435 = test system: MDA-MB-435
NCI/ADR-RES ovarian = test system: NCI/ADR-RES ovarian
CAKI-1 renal = test system: CAKI-1 renal
A549 NSCLC = test system: A549 NSCLC
UO-31 renal = test system: UO-31 renal
IGROV1 ovarian = test system: IGROV1 ovarian
UACC-257 melanoma = test system: UACC-257 melanoma
EKVX NSCLC = test system: EKVX NSCLC
HT29 colon = test system: HT29 colon
HOP-92 NSCLC = test system: HOP-92 NSCLC
K-562 leukemia = test system: K-562 leukemia
NCI-H226 lung = test system: NCI-H226 lung
SNB-75 CNS = test system: SNB-75 CNS
KM12 colon = test system: KM12 colon
OVCAR-3 ovarian = test system: OVCAR-3 ovarian
TK-10 renal = test system: TK-10 renal
MALME-3M melanoma = test system: MALME-3M melanoma
HCT-15 colon = test system: HCT-15 colon
DU-145 prostate = test system: DU-145 prostate
NCI-H23 lung = test system: NCI-H23 lung
RXF 393 renal = test system: RXF 393 renal
NCI-H460 lung = test system: NCI-H460 lung
A498 renal = test system: A498 renal
SN12C renal = test system: SN12C renal

Question: With `NC(=O)c1c(NC(=O)c2ccc(C(F)(F)F)cc2)sc2c1CCC(=O)C2` as the compound, how does the GI50 (SF-268 CNS) read?
Answer: 1.48 µM

Question: What about the TGI (SF-268 CNS) of the same compound?
Answer: 14.4 µM

Question: What about the GI50 (NCI-H522 lung) of the same compound?
Answer: 0.613 µM

Question: And the TGI (NCI-H522 lung)?
Answer: 2.39 µM

Question: What about the GI50 (SF-539 CNS) of the same compound?
Answer: 0.5 µM

Question: And the TGI (SF-539 CNS)?
Answer: 1.81 µM

Question: And the GI50 (786-0 renal)?
Answer: 3.91 µM

Question: What about the TGI (786-0 renal) of the same compound?
Answer: 32 µM

Question: And the GI50 (PC-3 prostate)?
Answer: 0.316 µM

Question: What about the TGI (PC-3 prostate) of the same compound?
Answer: 1.86 µM

Question: What about the GI50 (HCT-116 colon) of the same compound?
Answer: 0.369 µM

Question: And the TGI (HCT-116 colon)?
Answer: 3.55 µM

Question: And the GI50 (OVCAR-5 ovarian)?
Answer: 1.89 µM

Question: What about the TGI (OVCAR-5 ovarian) of the same compound?
Answer: 6.08 µM

Question: What about the GI50 (MOLT-4 leukemia) of the same compound?
Answer: 1.07 µM

Question: And the TGI (MOLT-4 leukemia)?
Answer: 8.32 µM

Question: What about the GI50 (SK-MEL-2 melanoma) of the same compound?
Answer: 3.21 µM

Question: And the TGI (SK-MEL-2 melanoma)?
Answer: 11.1 µM

Question: What about the GI50 (CCRF-CEM leukemia) of the same compound?
Answer: 0.266 µM

Question: And the TGI (CCRF-CEM leukemia)?
Answer: 14 µM

Question: What about the GI50 (OVCAR-4 ovarian) of the same compound?
Answer: 1.94 µM

Question: What about the TGI (OVCAR-4 ovarian) of the same compound?
Answer: 4.83 µM

Question: What about the GI50 (UACC-62 melanoma) of the same compound?
Answer: 0.758 µM

Question: What about the TGI (UACC-62 melanoma) of the same compound?
Answer: 2.35 µM

Question: What about the GI50 (SK-OV-3 ovarian) of the same compound?
Answer: 3.03 µM

Question: What about the TGI (SK-OV-3 ovarian) of the same compound?
Answer: > 28.6 µM

Question: What about the GI50 (OVCAR-8 ovarian) of the same compound?
Answer: 1.85 µM

Question: And the TGI (OVCAR-8 ovarian)?
Answer: 25 µM

Question: And the GI50 (SK-MEL-5 melanoma)?
Answer: 1.73 µM

Question: What about the TGI (SK-MEL-5 melanoma) of the same compound?
Answer: 3.32 µM

Question: What about the GI50 (HL-60(TB) leukemia) of the same compound?
Answer: 1.35 µM

Question: And the TGI (HL-60(TB) leukemia)?
Answer: 8.06 µM

Question: And the GI50 (M14 melanoma)?
Answer: 1.86 µM

Question: And the TGI (M14 melanoma)?
Answer: 4.56 µM

Question: What about the GI50 (COLO 205 colon) of the same compound?
Answer: 1.55 µM

Question: What about the TGI (COLO 205 colon) of the same compound?
Answer: 3.93 µM

Question: What about the GI50 (SK-MEL-28 melanoma) of the same compound?
Answer: 1.14 µM

Question: And the TGI (SK-MEL-28 melanoma)?
Answer: 2.82 µM

Question: And the GI50 (HS 578T breast)?
Answer: 1.89 µM

Question: And the TGI (HS 578T breast)?
Answer: 19.3 µM

Question: What about the GI50 (SR leukemia) of the same compound?
Answer: 0.393 µM

Question: And the TGI (SR leukemia)?
Answer: > 100 µM

Question: What about the GI50 (SW-620 colon) of the same compound?
Answer: 0.379 µM

Question: What about the TGI (SW-620 colon) of the same compound?
Answer: 1.96 µM

Question: And the GI50 (LOX IMVI melanoma)?
Answer: 0.391 µM

Question: What about the TGI (LOX IMVI melanoma) of the same compound?
Answer: 2.24 µM

Question: What about the GI50 (SF-295 CNS) of the same compound?
Answer: 2.17 µM

Question: What about the TGI (SF-295 CNS) of the same compound?
Answer: 6.01 µM

Question: What about the GI50 (ACHN renal) of the same compound?
Answer: 1.25 µM

Question: And the TGI (ACHN renal)?
Answer: 2.53 µM

Question: What about the GI50 (MCF7 breast) of the same compound?
Answer: 1.37 µM

Question: And the TGI (MCF7 breast)?
Answer: 10.1 µM

Question: What about the GI50 (T-47D breast) of the same compound?
Answer: 0.545 µM

Question: And the TGI (T-47D breast)?
Answer: 3.34 µM

Question: What about the GI50 (U251 CNS) of the same compound?
Answer: 0.426 µM

Question: And the TGI (U251 CNS)?
Answer: 4.67 µM

Question: And the GI50 (SNB-19 CNS)?
Answer: 1.31 µM

Question: What about the TGI (SNB-19 CNS) of the same compound?
Answer: 9.92 µM

Question: And the GI50 (HOP-62 NSCLC)?
Answer: 3.55 µM

Question: And the TGI (HOP-62 NSCLC)?
Answer: 17.6 µM

Question: What about the GI50 (HCC-2998 colon) of the same compound?
Answer: 2.49 µM

Question: What about the TGI (HCC-2998 colon) of the same compound?
Answer: 6.95 µM

Question: What about the GI50 (BT-549 breast) of the same compound?
Answer: 0.569 µM

Question: What about the TGI (BT-549 breast) of the same compound?
Answer: 7.21 µM

Question: What about the GI50 (MDA-MB-231 breast) of the same compound?
Answer: 1.02 µM

Question: And the TGI (MDA-MB-231 breast)?
Answer: 3.98 µM

Question: What about the GI50 (RPMI-8226 leukemia) of the same compound?
Answer: 0.279 µM

Question: And the TGI (RPMI-8226 leukemia)?
Answer: 1.26 µM

Question: And the GI50 (MDA-MB-435)?
Answer: 1.95 µM

Question: What about the TGI (MDA-MB-435) of the same compound?
Answer: 4.75 µM

Question: What about the GI50 (NCI/ADR-RES ovarian) of the same compound?
Answer: 1.48 µM

Question: And the TGI (NCI/ADR-RES ovarian)?
Answer: 7.49 µM

Question: What about the GI50 (CAKI-1 renal) of the same compound?
Answer: 0.75 µM

Question: And the TGI (CAKI-1 renal)?
Answer: 2.43 µM

Question: What about the GI50 (A549 NSCLC) of the same compound?
Answer: 3.12 µM

Question: And the TGI (A549 NSCLC)?
Answer: 15.4 µM

Question: What about the GI50 (UO-31 renal) of the same compound?
Answer: 0.645 µM

Question: What about the TGI (UO-31 renal) of the same compound?
Answer: 1.9 µM

Question: And the GI50 (IGROV1 ovarian)?
Answer: 1.23 µM

Question: And the TGI (IGROV1 ovarian)?
Answer: 4.35 µM

Question: And the GI50 (UACC-257 melanoma)?
Answer: 1.98 µM

Question: And the TGI (UACC-257 melanoma)?
Answer: 5.9 µM

Question: And the GI50 (EKVX NSCLC)?
Answer: 2.42 µM

Question: What about the TGI (EKVX NSCLC) of the same compound?
Answer: 8.58 µM

Question: What about the GI50 (HT29 colon) of the same compound?
Answer: 1.07 µM

Question: What about the TGI (HT29 colon) of the same compound?
Answer: 5.26 µM

Question: And the GI50 (HOP-92 NSCLC)?
Answer: 0.726 µM

Question: And the TGI (HOP-92 NSCLC)?
Answer: 3.47 µM

Question: And the GI50 (K-562 leukemia)?
Answer: 0.3 µM

Question: What about the TGI (K-562 leukemia) of the same compound?
Answer: > 41.3 µM

Question: And the GI50 (NCI-H226 lung)?
Answer: 2.04 µM

Question: And the TGI (NCI-H226 lung)?
Answer: 4.98 µM

Question: And the GI50 (SNB-75 CNS)?
Answer: 1.79 µM

Question: And the TGI (SNB-75 CNS)?
Answer: 5.95 µM

Question: And the GI50 (KM12 colon)?
Answer: 1.72 µM

Question: And the TGI (KM12 colon)?
Answer: 7.18 µM

Question: What about the GI50 (OVCAR-3 ovarian) of the same compound?
Answer: 0.575 µM

Question: And the TGI (OVCAR-3 ovarian)?
Answer: 2.47 µM

Question: What about the GI50 (TK-10 renal) of the same compound?
Answer: 1.66 µM

Question: What about the TGI (TK-10 renal) of the same compound?
Answer: 11.2 µM

Question: What about the GI50 (MALME-3M melanoma) of the same compound?
Answer: 1.08 µM

Question: And the TGI (MALME-3M melanoma)?
Answer: 3.1 µM

Question: What about the GI50 (HCT-15 colon) of the same compound?
Answer: 0.699 µM

Question: And the TGI (HCT-15 colon)?
Answer: 2.81 µM

Question: What about the GI50 (DU-145 prostate) of the same compound?
Answer: 4.81 µM

Question: What about the TGI (DU-145 prostate) of the same compound?
Answer: > 100 µM

Question: What about the GI50 (NCI-H23 lung) of the same compound?
Answer: 0.887 µM

Question: And the TGI (NCI-H23 lung)?
Answer: 9.09 µM

Question: What about the GI50 (RXF 393 renal) of the same compound?
Answer: 0.874 µM

Question: And the TGI (RXF 393 renal)?
Answer: 4.24 µM

Question: And the GI50 (NCI-H460 lung)?
Answer: 3.35 µM

Question: What about the TGI (NCI-H460 lung) of the same compound?
Answer: 12.8 µM

Question: And the GI50 (A498 renal)?
Answer: 5.06 µM

Question: And the TGI (A498 renal)?
Answer: 19.2 µM

Question: What about the GI50 (SN12C renal) of the same compound?
Answer: 2.23 µM

Question: What about the TGI (SN12C renal) of the same compound?
Answer: 13.2 µM
